This note sets out measurements from ChEMBL document CHEMBL5131537 (J Med Chem, 2022).

The nature of data set [1]: Acute toxicity in 12 hr fasted male CD-1(ICR) mouse assessed as pathological damage in lung at 2 g/kg, IG administered as single dose measured after 14 days by H and E staining based analysis. Format: tissue-based. As to conditions: in vivo, po, 2000 mg/kg, 336 h, time 14 day.
A short description of data set [2]: MRT (0 to infinity) in Sprague-Dawley rat at 1 mg/kg, iv measured after 0.083 to 24 hrs by LC-MS analysis. Format: ADME, organism-based. As to conditions: in vivo, time 0.083-24 hrs.
Data set [3] concerns Human immunodeficiency virus 1. Nature of the data set: microbe, parasite or virus in culture. The note with it: Human immunodeficiency virus 1, IIIB, MT4.
Description: Antiviral activity against HIV-1 IIIB harboring reverse transcriptase Y188L mutant infected in human MT4 cells by MTT assay
The subject of data set [4] is Human immunodeficiency virus 1. Nature of the data set: Antiviral activity against HIV-1 IIIB harboring reverse transcriptase […] mutant infected in human MT4 cells by MTT assay. As to conditions: Human immunodeficiency virus 1, IIIB. The format is functional, organism-based.
In data set [5] the test system is Human immunodeficiency virus 1. Nature of the data set: microbe, parasite or virus in culture. As to conditions: Human immunodeficiency virus 1, IIIB, MT4. This is another data set of the same source.
Description: Antiviral activity against wild type HIV-1 IIIB infected in human MT4 cells assessed as protection against virus-induced cytopathic effect by MTT assay
Data set [6] is described as follows: Acute toxicity in 12 hr fasted male CD-1(ICR) mouse assessed as pathological damage in heart at 2 g/kg, IG administered as single dose measured after 14 days by H and E staining based analysis. The format is tissue-based. The note with it: in vivo, po, 2000 mg/kg, 336 h, time 14 day.
The nature of data set [7]: Acute toxicity in 12 hr fasted male CD-1(ICR) mouse assessed as pathological damage in liver at 2 g/kg, IG administered as single dose measured after 14 days by H and E staining based analysis. The format is tissue-based. The note with it: in vivo, po, 2000 mg/kg, 336 h, time 14 day.
For data set [8], the target named is Voltage-gated inwardly rectifying potassium channel KCNH2 (Homo sapiens, UniProt Q12809). Nature of the data set: Inhibition of human ERG potassium channel transfected in CHO cells by automated patch clamp assay. The format is toxicity, cell-based. On the technique in general: Patch clamp records ionic current or voltage across a cell membrane.
Voltage-gated inwardly rectifying potassium channel KCNH2, sequence (Q12809 whole entry): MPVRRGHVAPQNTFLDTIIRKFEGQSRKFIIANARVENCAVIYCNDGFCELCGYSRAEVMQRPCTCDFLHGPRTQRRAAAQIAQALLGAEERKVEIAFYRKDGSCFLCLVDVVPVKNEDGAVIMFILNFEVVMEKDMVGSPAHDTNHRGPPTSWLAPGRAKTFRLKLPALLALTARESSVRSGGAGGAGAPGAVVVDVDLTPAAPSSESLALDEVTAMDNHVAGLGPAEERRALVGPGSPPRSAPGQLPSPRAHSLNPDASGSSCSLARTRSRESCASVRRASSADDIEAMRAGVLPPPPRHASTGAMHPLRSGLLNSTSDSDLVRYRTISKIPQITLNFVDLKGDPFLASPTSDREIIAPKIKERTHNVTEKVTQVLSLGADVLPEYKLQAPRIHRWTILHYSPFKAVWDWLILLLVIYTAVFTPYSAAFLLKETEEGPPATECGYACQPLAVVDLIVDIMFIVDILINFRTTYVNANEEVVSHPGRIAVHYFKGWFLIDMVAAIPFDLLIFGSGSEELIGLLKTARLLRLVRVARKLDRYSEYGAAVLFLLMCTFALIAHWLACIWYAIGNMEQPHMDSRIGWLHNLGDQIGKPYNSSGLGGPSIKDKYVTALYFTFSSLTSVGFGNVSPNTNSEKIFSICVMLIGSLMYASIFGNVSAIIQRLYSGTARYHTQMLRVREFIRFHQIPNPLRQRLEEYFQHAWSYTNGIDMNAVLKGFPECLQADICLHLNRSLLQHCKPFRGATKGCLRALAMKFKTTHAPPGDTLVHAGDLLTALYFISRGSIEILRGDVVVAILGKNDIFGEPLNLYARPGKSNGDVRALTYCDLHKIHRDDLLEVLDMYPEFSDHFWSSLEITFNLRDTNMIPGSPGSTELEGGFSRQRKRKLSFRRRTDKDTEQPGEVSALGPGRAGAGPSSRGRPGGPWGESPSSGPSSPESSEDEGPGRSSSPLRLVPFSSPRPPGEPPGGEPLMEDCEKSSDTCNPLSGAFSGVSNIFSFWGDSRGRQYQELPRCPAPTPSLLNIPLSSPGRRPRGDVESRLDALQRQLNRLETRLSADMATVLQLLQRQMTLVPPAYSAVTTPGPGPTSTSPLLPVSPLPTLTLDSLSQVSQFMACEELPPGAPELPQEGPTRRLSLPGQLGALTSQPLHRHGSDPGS
The nature of data set [9]: Acute toxicity in 12 hr fasted male CD-1(ICR) mouse assessed as pathological damage in spleen at 2 g/kg, IG administered as single dose measured after 14 days by H and E staining based analysis. The format is tissue-based. As to conditions: in vivo, po, 2000 mg/kg, 336 h, time 14 day.
Data set [10] can be described thus: Cmax in Sprague-Dawley rat at 5 mg/kg, po measured after 0.083 to 24 hrs by LC-MS analysis. More on the design: dose 5 mg/kg, time 0.083-24 hrs, route po. The note with it: in vivo. Format: ADME, organism-based.
For data set [11], the system named is Human immunodeficiency virus 1. Put plainly: Antiviral activity against HIV-1 IIIB harboring reverse transcriptase E138K mutant infected in human MT4 cells by MTT assay. The note with it: Human immunodeficiency virus 1, IIIB. The format is functional, organism-based.
Data set [12] in a line: Acute toxicity in 12 hr fasted female CD-1(ICR) mouse assessed as behavioral abnormalities at 2 g/kg, IG administered as single dose measured after 14 days. As to conditions: in vivo, po, 2000 mg/kg, 336 h, time 14 day.
Data set [13] is described as follows: AUC (0 to infinity) in Sprague-Dawley rat at 5 mg/kg, po measured after 0.083 to 24 hrs by LC-MS analysis. Further details: time upper 24 hrs, dose 5 mg/kg, time lower 0.083 hrs, route po. Format: ADME, organism-based. As to conditions: in vivo.
The nature of data set [14]: Acute toxicity in 12 hr fasted female CD-1(ICR) mouse assessed as animal death at 2 g/kg, IG administered as single dose measured after 14 days. As to conditions: in vivo, po, 2000 mg/kg, 336 h, time 14 day.
Data set [15] in a line: Acute toxicity in 12 hr fasted female CD-1(ICR) mouse assessed as pathological damage in brain at 2 g/kg, IG administered as single dose measured after 14 days by H and E staining based analysis. The format is tissue-based. As to conditions: in vivo, po, 2000 mg/kg, 336 h, time 14 day.
The nature of data set [16]: Clearance in Sprague-Dawley rat at 1 mg/kg, iv measured after 0.083 to 24 hrs by LC-MS analysis. Format: ADME, organism-based. As to conditions: in vivo, time 0.083-24 hrs.
Data set [17] can be described thus: MRT (0 to infinity) in Sprague-Dawley rat at 5 mg/kg, po measured after 0.083 to 24 hrs by LC-MS analysis. As to conditions: in vivo, time 0.083-24 hrs. The format is ADME, organism-based.
Data set [18] has as its system Human immunodeficiency virus 1. Put plainly: Antiviral activity against HIV-1 IIIB harboring reverse transcriptase K103N mutant infected in human MT4 cells by MTT assay. The format is functional, organism-based. As to conditions: Human immunodeficiency virus 1, IIIB.

For orientation: MRT inf means a mean duration of stay, worked out from the concentration-time curve. Broadly, the EC50 is the concentration at which the effect is half-maximal. The low end stands for an effect from little substance, the high end for a need for much substance. In general, IC50 refers to the midpoint of a concentration-inhibition curve. A high value points to weaker potency in that assay. The term Cmax denotes the peak of the concentration-time curve. For orientation: AUC(0-inf) means total exposure, with the tail of the curve extrapolated. A higher AUC(0-inf) goes with high exposure. One may read the clearance as a measure of how efficiently the substance is removed, as volume per time. On to `COc1cc(-c2ccc(C#N)cc2)ccc1Oc1cc(N)nc(Nc2ccc(C#N)cc2)n1`, for which the Activity entry in data set [1], in data set [6], in data set [7], in data set [9], in [12] and in data set [14] was “Non-Toxic” throughout. The Activity result in [15] is given as “Non-Toxic”. In addition, the MRT inf was 1.18 h in data set [2] and 2.89 h in [17]. Besides, the EC50 in data set [3] came to 570 nM; in data set [4] it was 19 nM; in data set [5] it was 1.9 nM; in [11] it was 9 nM; in data set [18], 4 nM. For the same molecule, the IC50 in data set [8] is more than 40000 nM. The same molecule registered a Cmax in [10] of 44.8 ng/mL. In addition, in data set [13], the AUC(0-inf) turned out to be 124 ng·h/mL. Moreover, in [16], the clearance is 51.6 mL/min/kg.
